# Test results from DBAASP.
# Legend:
# Assay in all cases: ≥ marks a high value that may be exact or a test limit, other limits are often not marked, values filed in µg/mL are converted to µM
# [1] = tested on: Acinetobacter baumannii MTCC 9829
# [2] = tested on: Alcaligenes faecalis MTCC 1937
# [3] = tested on: Alkalihalobacillus alcalophilus MTCC 860
# [4] = tested on: Bordetella bronchiseptica MTCC 6837
# [5] = tested on: Citrobacter freundii MTCC 1658
# [6] = tested on: Citrobacter koseri MTCC 1657
# [7] = tested on: Corynebacterium glutamicum MTCC 2679
# [8] = tested on: Enterococcus faecalis MTCC 439
# [9] = tested on: Escherichia coli K12 MG1655
# [10] = tested on: Haemophilus influenzae MTCC 621
# [11] = tested on: Klebsiella aerogenes MTCC 111
# [12] = tested on: Klebsiella oxytoca MTCC 2275
# [13] = tested on: Klebsiella pneumoniae MTCC 7407
# [14] = tested on: Pluralibacter gergoviae MTCC 3826
# [15] = tested on: Proteus mirabilis MTCC 3158
# [16] = tested on: Proteus vulgaris MTCC 1771
# [17] = tested on: Pseudomonas aeruginosa MTCC 3542
# [18] = tested on: Salmonella enterica MTCC 9844
# [19] = tested on: Salmonella enterica subsp. enterica serovar Typhimurium ATCC 14028
# [20] = tested on: Shigella boydii MTCC 11947
# [21] = tested on: Shigella flexneri MTCC 1457
# [22] = tested on: Staphylococcus aureus MTCC 3160
# [23] = tested on: Staphylococcus haemolyticus MTCC 3383
# [24] = tested on: Stenotrophomonas maltophilia MTCC 1890
# [25] = tested on: Vibrio cholerae MTCC 3904
# [26] = tested on: Bacillus subtilis MTCC 14416
# [27] = tested on: Enterococcus faecalis ATCC 29212
# [28] = tested on: Escherichia coli MG1655
# [29] = tested on: Pseudomonas aeruginosa ATCC 27853
# [30] = tested on: Staphylococcus aureus ATCC 43300
# [31] = tested on: Staphylococcus aureus MTCC 9542
# [32] = tested on: Vibrio cholerae
structure (smiles),measurement,setting,value
CC[C@H](C)[C@H](NC(=O)[C@H](C)NC(=O)[C@@H]1CCCN1C(=O)[C@@H]1CCCN1C(=O)[C@H](CC(C)C)NC(=O)[C@H](Cc1cnc[nH]1)NC(=O)[C@H](CCCCN)NC(=O)[C@H](C)NC(=O)[C@@H](NC(=O)CNC(=O)[C@H](CCCCN)NC(=O)[C@H](C)NC(=O)[C@@H](NC(=O)[C@@H](N)CCC(=O)O)[C@@H](C)O)C(C)C)C(=O)N[C@@H](C)C(=O)O [ETAKGVAKHLPPAIA],MIC,[1],≥ 85.2 µM
same,MIC,[2],≥ 85.2 µM
same,MIC,[3],≥ 85.2 µM
same,MIC,[4],≥ 85.2 µM
same,MIC,[5],≥ 85.2 µM
same,MIC,[6],≥ 85.2 µM
same,MIC,[7],≥ 85.2 µM
same,MIC,[8],≥ 85.2 µM
same,MIC,[9],≥ 85.2 µM
same,MIC,[10],≥ 85.2 µM
same,MIC,[11],≥ 85.2 µM
same,MIC,[12],≥ 85.2 µM
same,MIC,[13],≥ 85.2 µM
same,MIC,[14],≥ 85.2 µM
same,MIC,[15],≥ 85.2 µM
same,MIC,[16],≥ 85.2 µM
same,MIC,[17],≥ 85.2 µM
same,MIC,[18],≥ 85.2 µM
same,MIC,[19],> 85.2 µM
same,MIC,[20],≥ 85.2 µM
same,MIC,[21],≥ 85.2 µM
same,MIC,[22],≥ 85.2 µM
same,MIC,[23],≥ 85.2 µM
same,MIC,[24],≥ 85.2 µM
same,MIC,[25],≥ 85.2 µM
CC[C@H](C)[C@H](N)C(=O)N[C@@H](C)C(=O)NCC(=O)N[C@@H](CC(C)C)C(=O)N[C@@H](C)C(=O)N[C@@H](C)C(=O)N[C@@H](CC(N)=O)C(=O)N[C@@H](Cc1ccccc1)C(=O)N[C@@H](CC(C)C)C(=O)N1CCC[C@H]1C(=O)N[C@@H](CCC(N)=O)C(=O)N[C@H](C(=O)N[C@@H](CC(C)C)C(=O)N[C@@H](CS)C(=O)N[C@@H](CCCCN)C(=O)N[C@H](C(=O)N[C@@H](C)C(=O)N[C@@H](CCCN=C(N)N)C(=O)N[C@@H](CCCCN)C(N)=O)[C@@H](C)CC)[C@@H](C)CC [IAGLAANFLPQILCKIARK],MIC,[26],24.5 µM
same,MIC,[27],24.5 µM
same,MIC,[28],12.3 µM
same,MIC,[29],> 49 µM
same,MIC,[30],24.5 µM
same,MIC,[31],24.5 µM
same,MIC,[32],24.5 µM
